# From patent US20260306526A1, “COMBINATION THERAPY FOR BACTERIAL INFECTIONS COMPRISING ZINC-CHELATOR, BETA-LACTAM ANTIBIOTIC AND SERINE BETA-LACTAMASE INHIBITOR” (priority 2023, published 2026)
# Several values for one entry are separate records, joined by “and”; a condition that tells them apart may be missing. Equal entries are not always repeated.
# Columns and labels:
# [1] = tested on: Klebsiella pneumoniae Kpn St147; assay: MIC determination, checkerboard broth microdilution, meropenem + zinc chelator + avibactam (Example 1); type: cell-based
# Method: Antimicrobial susceptibility testing (AST) by broth microdilution was performed according to The European Committee on Antimicrobial Susceptibility Testing.
# Sensititre™ FINMER meropenem 64-0.03 μg/ml plates (Thermo Fischer Diagnostics custom plates; YFINMER) were modified by adding avibactam to rows 3 to 8 in concentrations of 64, 16, 8, 4, 1 and 0.25 μg/ml, respectively. The zinc chelator was added to the wells of the plate, where applicable. Three plates were made per experiment, one without the zinc chelator (plate 1), one with 16 μg/ml of the zinc chelator (plate 2) and one with 32 μg/ml of the zinc chelator (plate 3). The first row in all plates was used as a positive control for meropenem only, and the second row included the zinc chelator in addition to meropenem (no avibactam added to rows 1 or 2). The zinc chelator was added at the indicated concentration to rows 3-8 of plates 2 and 3.
# The effect of the combination of zinc chelator/MEM/avibactam was tested on a clinically isolated Klebsiella pneumoniae Kpn St147 actively constitutionally expressing the two resistance mechanisms NDM-1 and KPC-2 simultaneously. As a negative control, bacteria+meropenem was tested alone. As a positive control, bacteria+MEM+zinc chelator was used. In Table 1 and 2, concentrations (μg/ml) of meropenem are given in the top row left to right and avibactam concentrations (μg/ml) are given top to bottom in column 1. […] A blank cell indicates no growth.
# The fractional inhibitory concentration (FIC) is defined as the concentration that kills when used in combination with another agent divided by the concentration that has the same effect when used alone. The FIC index (FICI) for the combination of two agents is the sum of their individual FIC values. […]
# [2] = tested on: bacteria which rely on SBLs; conditions: with MEM; cited from earlier work
# [3] = tested on: Klebsiella pneumoniae ST147; assay: MIC determination, fixed ratio of sBLI to antibiotic (Examples 5-7); type: cell-based; conditions: Example 7; with MEM and AVI (fixed ratio); NDM-1 and KPC-2; caMHB, 29.4 μM Zn2+
# Method: Antimicrobial susceptibility testing (AST) by broth microdilution (MIC determination) was performed according to The European Committee on Antimicrobial Susceptibility Testing (EUCAST) guidelines (see Reading guide for broth microdilution Version 5.0, 2024: https://www.eucast.org).
# Sterile clear round bottom polystyrene (non-treated) 96-well microplates (Corning 3788) were used for making serial two-fold dilutions of the antibiotic and the sBLI in cation-adjusted Mueller Hinton II broth (caMHB; Thermo Scientific, T3462, containing 29.4 μM Zn^2+), across the columns of the microtiter plate (256-0.06 μg/mL; columns 1-12). The checkerboard plates were all made by keeping the sBLI at a fixed ratio relative to antibiotic (absolute concentrations of each, in μg/mL) to all wells containing sample in each plate. Additionally, a set of samples was included in each test plate, where the zinc chelator was added, at various fixed concentrations, of 16 μg/mL, 8 μg/mL and/or 4 μg/mL (as specified in each Example). All sample wells contained growth medium (caMHB), and inoculated bacteria at a final inoculum between 3-7×10^5 CFU/mL. […]
# [4] = tested on: many strains of Acinetobacter baumannii; conditions: with MEM; cited from earlier work
smiles,measurement,setting,value
CN(C[C@H](O)[C@@H](O)[C@H](O)[C@H](O)CO)C(=O)c1ccc(CN(Cc2ccccn2)Cc2ccccn2)nc1 [zinc chelator],FICI Zinc Chelator,"[1]; zinc chelator 16 μg/mL, MEM/avibactam 0.5/0.25 (r9), 0.25/1 (r10), 0.25/4 (r11), 0.06/8 (r12) μg/mL",0.008
same,FICI Zinc Chelator,"[1]; zinc chelator 32 μg/mL, MEM/avibactam 0.5/0.25 (r13), 0.12/1 (r14), 0.06/4 (r15), 0.06/8 (r16) μg/mL",0.016
same,amplification of the inhibitory effect,[1]; zinc chelator at 16 μg/ml with MEM + avibactam,about 64 fold
same,effect of combination,[2],no effect
same,Synergy with the zinc chelator observed at concentration,[3],16 µg/mL and 8 µg/mL
same,effect of combination,[4],poor effect
